Patent US11344527B2, “Methods and compositions for treating cancer” (Sutter West Bay Hospitals, priority 2007, dated 2022)
Where two headings read alike, the source gives them in different places.

Columns and labels:
MDA-MB231 cells [1] = assay: Boyden chamber invasion assay, MDA-MB231; format: cell-based, human; conditions: 0.1, 1.0 or 1.5 μM; FIG. 1A
Protocol: Invasion is an important step towards breast cancer cell metastasis. Therefore, the effects of several cannabinoids were tested on their ability to modulate the migratory and invasiveness activity of the most aggressive human breast cancer cell line, MDA-MB231, in a reconstituted basement membrane in a Boyden chamber.

Id-1 = Id-1 protein expression by quantitative Western analysis, MDA-MB231; format: cell-based, human; conditions: MDA-MB231 cells, 1.5 μM, two days, FIG. 1E
From the text: Proteins were separated by SDS/PAGE, blotted on Immobilon membrane, and probed with anti-Id-1 and the appropriate secondary antibody. Band intensity values were obtained directly from the blot using AlphaeaseFC software (San Leandro, Calif.) or from film using Image-J (NIH, MD). As a normalization control for loading, blots were stripped and re-probed with mouse alpha-tubulin (Abeam, Cambridge, Mass.).
The ability of CBD to regulate the expression of key genes that control breast cancer cell aggressiveness and invasiveness was determined A potential candidate protein that could mediate the effects of CBD on both phenotypes was the helix-loop-helix protein Id-1. […] The inhibitory effect of CBD on Id-1 expression occurred at concentrations as low as 100 nM. […] The CBD concentrations effective at inhibiting Id-1 expression correlated with those used to inhibit the proliferative and invasive phenotype of MDA-MB231 cells. Furthermore, the time period needed to observe the down-regulation of Id-1 protein in the presence of CBD correlated with the inhibitory effects of CBD on the aggressiveness and invasiveness of MDA-MB231 cells (FIG. 1, panel D).
In order to determine the SAR between cannabinoids and the inhibition of Id-1, MDA-MB231 cells were treated for two days with multiple cannabinoid compounds and Id-1 protein levels were assessed.

SF126 cells = assay: MTT cell proliferation assay, SF126 GBM cells; format: cell-based, human; conditions: Homo sapiens, read-out: IC50 antiproliferative, SF126
Protocol: (§1) The human GBM cell lines used were SF126, U87 and U251. Cell lines were maintained at 37° C. and 5% CO2.
(§2) Treatment groups were divided into 1) no treatment (control), 2) Δ^9-THC alone, 3) CBD alone, 4) Δ^9-THC and CBD combined. Positive and negative aspects of constituent interaction were determined in this 2×2 design using 2-way analysis of variance as described by (Slinker, 1998). […] Significant differences were also determined using ANOVA where suitable. […] P values <0.05 defined statistical significance.

U87 cells = assay: MTT cell proliferation assay, U87 GBM cells; format: cell-based, human; conditions: Homo sapiens, U-87 MG, 168 h, seven day treatment, 95% confidence limits, read-out: IC50 antiproliferative, U87
Protocol: as §1, §2

U251 cells [2] = assay: MTT cell proliferation assay, U251 GBM cells; format: cell-based, human; conditions: Homo sapiens, U-251, 168 h, seven day treatment, 95% confidence limits, read-out: IC50 antiproliferative, U251
Protocol: as §1, §2

U251 cells [3] = assay: Boyden chamber invasion assay, U251; format: cell-based, human
U251 cells [4] = assay: Apoptosis (annexin staining, FACS), U251; format: cell-based, human; conditions: U251, three days
Protocol: Cells were grown in 6 well culture dishes and were treated with the appropriate compounds every 24 hours for three days. The cells were trypsinized, washed with PBS, and processed for labeling with fluorescein-tagged UTP nucleotide and PI by use of an Apo-Direct apoptosis kit obtained from Phoenix Flow Systems (San Diego, Calif.) and was used according to the manufacturer's protocol. The labeled cells were analyzed by flow cytometry. Cell Flow Cytometry in combination with PI and annexin staining was used to quantify the percentage of cells undergoing apoptosis in control and treatment groups. % control was calculated as annexin positive staining in treated cells/control cells×100. PI staining was used to distinguish necrotic cells from those undergoing apoptosis.

ERK, JNK, and p38 MAPK = assay: MAPK activity (pERK, ERK, JNK, p38) by Western analysis, U251; format: cell-based, human
Protocol: Cells cultured and treated in 6-well dishes were washed twice with cold PBS. Lysis buffer was added and cells lysed by freezing for 10 min at −70° C. and then thawing. Cell lysate was collected and the concentration was determined using Bradford reagent. Equal amounts of protein were heated to 90° C. in Laemmli sample buffer with β-mercaptoethanol, and loaded onto a precast SDS-PAGE gel (Bio-Rad Laboratories, Hercules, Calif.). Protein was transferred to an Immobilon membrane (Millipore, Billerica, Mass.) overnight at 2-4° C. Blots were then blocked with 5% nonfat dry milk in TBS+Tween for 1 h. Primary antibody from Millipore (rabbit anti-phospho-JNK, rabbit anti-phospho-p38, rabbit anti-phospho-ERK1/2 and rabbit anti-ERK1/2, 1 mcg/mL) in blocking buffer was then added for 1 h. The blots were then rinsed three times 10 min with TBS+Tween. Secondary antibody (Donkey Anti-Rabbit IgG, Jackson Immunoresearch, West Grove, Pa.) was then added. Blots were incubated for 45 min and then washed 4 times for 15 min each. The blots were developed with SuperSignal Femto (Pierce, Rockford, Ill.), and imaged on either a Fluorchem 8900 (Alpha Innotech, San Leandro, Calif.) or ECL Hyperfilm (Amersham-Pharmacia, Piscataway, N.J.). Band intensity values were obtained (after background subtraction) directly from the […] using AlphaeaseFC software (San Leandro, Calif.) or from film using Image-J (NIH, MD). As a normalization control for loading, blots were stripped and re-probed with mouse alpha-tubulin (Abcam, Cambridge, Mass.) and goat anti-mouse IgG (Jackson Immunoresearch) for the primary and secondary antibodies, respectively.
The regulation of ERK, JNK, and p38 MAPK activity plays a role in controlling cell growth and apoptosis. U251 cells were used to determine whether modulation of ERK, JNK, and p38 MAPK activity occurred.

U251 cells [5] = assay: Cell cycle analysis (PI staining, FACS), U251; format: cell-based, human; conditions: Δ9-THC 1.7 μM and/or CBD 0.4 μM, FIG. 8
Protocol: U251 cells were grown in Petri dishes (100 mm×15 mm) and received drug treatments for 2 days. On the third day, the cells were harvested and centrifuged at 1200 rpm for 5 minutes. The pellet was washed 1× with PBS+1% BSA, and centrifuged again. The pellet was resuspended in 0.5 ml of 2% paraformaldehyde (diluted with PBS) and left to fix overnight at room temperature. The next day the cells were pelleted and resuspended in 0.5 ml 0.3% Triton in PBS and incubated for 5 minutes at room temperature. The cells were then washed 2 times with PBS+1% BSA. The cells were finally suspended in PBS (0.1% BSA) with 10 ug/ml Propidium Iodide and 100 μg/ml RNAse. The cells were incubated for 30 minutes at room temperature before being stored at 4 C. Cell cycle was measured using a FACS Calibur using Cell Quest Pro and Modfit software.

caspase 3, 7, 9 and PARP = assay: Caspase and PARP Western analysis, U251; format: cell-based, human; conditions: U251, three days; Δ9-THC 1.7 μM and/or CBD 0.4 μM; FIG. 9
MDA-MB231 cells [6] = assay: MTT cell proliferation assay, MDA-MB231; conditions: Homo sapiens, MDA-MB-231, 72 h, read-out: IC50 antiproliferative, MDA-MB231
MDA-MB436 cells = assay: MTT cell proliferation assay, MDA-MB436; conditions: Homo sapiens, MDA-MB-436, 72 h, read-out: IC50 antiproliferative, MDA-MB436

## CCCCCc1cc(O)c2c(c1)OC(C)(C)C1CCC(C)=CC21 (stereo not drawn) [Δ^9-THC, tetrahydrocannabinol]
MDA-MB231 cells [1]
  invasion of MDA-MB231 cells: significantly reduced
Id-1
  inhibition of Id-1 protein (structure activity relationship): No inhibition
Id-1; listed as THC
  inhibition of Id-1 protein (structure activity relationship): no activity
SF126 cells; SF-126, 72 h, three day treatment, 95% confidence limits (Table 4)
  IC50: 2500 nM
SF126 cells; SF-126, 168 h, seven day treatment, 95% confidence limits
  IC50: 900 nM
U87 cells
  IC50: 1600 nM
U251 cells [2]
  IC50: 1100 nM
U251 cells [3]; Boyden chamber, FIG. 10
  invasiveness of U251 cells: effectively inhibited
U251 cells [3]; Homo sapiens, U-251, limits 49-150, read-out: predicted IC50 to inhibit U251 cell invasiveness
  IC50: 85 nM
U251 cells [4]; 0.5 μM SR144528, combination 1.7/0.4 μM, 2.5 μM Δ9-THC or 2.0 μM CBD, FIG. 6
  apoptosis in the presence of the CB2 antagonist SR144528: partially blocked
U251 cells [4]; 20 μM α-tocopherol, combination 1.7/0.4 μM, 2.5 μM Δ9-THC or 2.0 μM CBD, FIG. 6
  apoptosis in the presence of α-tocopherol: completely blocked
U251 cells [4]; Δ9-THC 1.7 μM and/or CBD 0.4 μM, FIG. 5
  apoptosis (annexin staining): did not produce significant changes
ERK, JNK, and p38 MAPK; U251, three days, 2.5 μM Δ9-THC, 2.0 μM CBD, or 1.7 μM/0.4 μM combination, FIG. 6D
  p-ERK, higher concentrations alone compared with the combination: no effect
ERK, JNK, and p38 MAPK; U251, Δ9-THC 1.7 μM and/or CBD 0.4 μM, two days, FIG. 4
  p-ERK: no changes
U251 cells [5]
  cell cycle distribution: increases in the population of cells in G1 and G2/M phase and decreases in cells in S phase
Caspase 3, 7, 9 and PARP
  caspase 3, 7, 9 and PARP activation: Small increases in the activity of caspase 7, caspase 9 and PARP but not caspase 3
MDA-MB231 cells [6]
  IC50: 1200 nM
MDA-MB436 cells
  IC50: 2500 nM
